Source: PubChem BioAssay (NCI)
Where “and” joins values, the source holds several entries; their conditions need not be identical. Identical values can stand only once.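 In this assay, cells in 96-well plates receive the compound at five concentrations for 48 hours. Endpoints are linearly interpolated between the surrounding concentrations. GI50 is the concentration that inhibits growth by half. TGI marks complete inhibition of growth.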

Legend:
Assay in all cases: NCI anticancer screen, dose series, 48 h
COLO 205 colon = tested on: COLO 205 colon
SNB-19 CNS = tested on: SNB-19 CNS
NCI-H23 lung = tested on: NCI-H23 lung
DU-145 prostate = tested on: DU-145 prostate
MDA-MB-231 breast = tested on: MDA-MB-231 breast
HS 578T breast = tested on: HS 578T breast
K-562 leukemia = tested on: K-562 leukemia
HOP-92 NSCLC = tested on: HOP-92 NSCLC
A498 renal = tested on: A498 renal
CCRF-CEM leukemia = tested on: CCRF-CEM leukemia
OVCAR-3 ovarian = tested on: OVCAR-3 ovarian
SF-295 CNS = tested on: SF-295 CNS

Structure (SMILES)	TGI (COLO 205 colon)	TGI (SNB-19 CNS) [µM]	TGI (NCI-H23 lung)	TGI (DU-145 prostate)	TGI (MDA-MB-231 breast)	TGI (HS 578T breast) [µM]	TGI (K-562 leukemia) [µM]	TGI (HOP-92 NSCLC) [µM]	TGI (A498 renal)	TGI (CCRF-CEM leukemia) [µM]	TGI (OVCAR-3 ovarian)	TGI (SF-295 CNS)	GI50 (COLO 205 colon)	GI50 (SNB-19 CNS)	GI50 (HS 578T breast) [µM]	GI50 (K-562 leukemia)	GI50 (HOP-92 NSCLC)	GI50 (OVCAR-3 ovarian)	GI50 (CCRF-CEM leukemia)
O=C1CSC2(CC(/C=C/c3ccccc3[N+](=O)[O-])=NN2c2cccc(S(=O)(=O)O)c2)N1c1nc2ccccc2s1 (stereo not given)	> 75 µM	35.1	34.4 µM	27.5 µM	32 µM	> 75	63.3	56.7	38.7 µM	43.5	–	–	–	–	–	–	–	–	–
COC(=O)CC(c1ccccc1)C(C#N)(OP1(=O)OC(c2ccccc2)C(C)N1C)c1ccccc1 (stereo not given)	44.6 µM	> 100	> 100 µM	> 100 µM	> 100 µM	> 100	> 100	> 100	> 100 µM	> 100	> 100 µM	> 100 µM	–	–	–	–	–	–	–
O=C1CCCC1C(O)(C(F)(F)Cl)C(F)(F)Cl (stereo not given)	> 10 µM	> 10	> 10 µM	> 10 µM	> 10 µM	> 10	> 10	> 10	> 10 µM	> 10	> 10 µM	> 10 µM	–	–	–	–	–	–	–
Cc1cccc2c1CC1(Cc3c(C)cccc3C1=O)C2=O	–	> 100	> 100 µM	> 100 µM	> 100 µM	> 100	> 100	> 100	> 100 µM	> 100	> 100 µM	> 100 µM	–	–	–	–	–	–	–
COc1cc(CNC(=O)CCCCCCCCCCSC#N)ccc1O	94.5 µM	48.3	43 µM	34.3 µM	> 100 µM	40.9	88.5	34.8	30.3 µM	62.9	26.2 µM	37.4 µM	–	–	–	–	–	–	–
CCCCCC(=O)OC[n+]1ccc(-c2c(COC(=O)NC(C)C)c(COC(=O)NC(C)C)c3n2CCC3)cc1	> 100 µM	> 100	> 100 µM	> 100 µM	> 100 µM	> 100	> 100	> 100	> 100 µM	> 100	> 100 µM	> 100 µM	–	–	–	–	–	–	–
O=C1C=C(NCCc2ccc(O)cc2)C(=O)C=C1NCCc1ccc(O)cc1	> 100 µM	> 100	> 100 µM	> 100 µM	> 100 µM	> 100	> 100	> 100	> 100 µM	> 100	> 100 µM	> 100 µM	–	–	–	–	–	–	–
COC(=O)/C=C/c1cc(OC)c2c(c1)C(C(=O)OC)C(c1ccc(O)c(OC)c1)O2 (stereo not given)	35.4 µM and 26.4 µM and 25.8 µM	> 100	> 100 µM and 13 µM and 56.5 µM	> 100 µM and 35.7 µM	> 25.8 µM and 18.8 µM and 42.1 µM	> 88.1	> 50.3	> 100	> 65.4 µM and > 100 µM and 77.3 µM	–	> 27 µM and > 25.6 µM and 19.8 µM	11.8 µM and 12.6 µM and 10 µM	17 µM and 13.1 µM and 7.32 µM	4.15 µM and 4.27 µM and 9.01 µM	5.34	1510 nM and 1110 nM and 579 nM	> 37.2 µM and 12.4 µM and 16.9 µM	4.97 µM and 3.89 µM and 2 µM	3.4 µM and 3.35 µM and 0.699 µM
COc1ccc(C2=Nn3c(C)nnc3S/C2=C\c2ccc(-c3ccc([N+](=O)[O-])cc3)o2)cc1	–	38.7	28.5 µM	27.3 µM	> 100 µM	> 100	17.7	62.2	89.8 µM	> 100	33 µM	> 100 µM	–	–	–	–	–	–	–
